We go through 1 molecule from paper PMC12763877 (Journal of Experimental & Clinical Cancer Research : CR, 2025).

For series [1], the system named is HUVEC. In words: Sulforhodamine B proliferation assay. The class given is cell-based, human. The settings on record: for IC50: Homo sapiens, HUVEC, read-out: IC50, HUVEC proliferation. The procedure:
The culture medium was aspirated from the plates, and cells were fixed with 10% trichloroacetic acid (TCA) for 30 min. The plates were then washed twice with distilled water and air-dried. Subsequently, 0.4% sulforhodamine B (SRB) solution was added, and the plates were stained on a shaker for 20 min. The staining solution was discarded, and excess dye was removed by washing with freshly prepared 1% acetic acid. After air-drying, 10 mM Tris solution was added to each well. The plates were agitated on a shaker for 5 min to dissolve the dye, and the absorbance was measured at 560 nm using a microplate reader.
Angiogenesis is a multi-step process requiring coordinated endothelial functions, such as cell migration, proliferation, and extracellular matrix remodeling. […] Moreover, in the later stages of angiogenesis, vascular endothelial cells undergo proliferation and migration and further align to form cord-like, lumen-like structures(21). Thus, we conducted a vascular tube formation assay to evaluate the effect of candesartan on vascular normalization.
Background: In SRB staining, fixed cells bind dye roughly in proportion to their protein.

In series [2] the test system is FAK-MMP9 signaling in HUVEC. In words: Western blot of FAK and MMP-9. In kind it is cell-based, human. As to conditions: candesartan 15, 7.5, 3.75 µM; sunitinib 2 µM. The procedure: Total protein was extracted using RIPA lysis buffer (Solarbio, China) supplemented with phenylmethylsulfonyl fluoride (PMSF; Thermo Fisher Scientific, USA), protease inhibitor cocktail (Roche, Switzerland), and phosphatase inhibitor cocktail (Roche, Switzerland). Protein concentration was determined using a BCA protein assay kit (Thermo Fisher Scientific, USA). Equal amounts of protein were separated by 10% SDS-polyacrylamide gel electrophoresis (SDS-PAGE) and transferred onto nitrocellulose (NC) membranes. […] All primary antibodies were purchased from Cell Signaling Technology (CST, USA), except for GAPDH, which was obtained from Proteintech (Wuhan, China). After washing, the membranes were incubated with HRP-conjugated goat anti-rabbit or anti-mouse IgG secondary antibodies (Biosharp, China) for 1 h at room temperature. Protein bands were visualized using an enhanced chemiluminescence (ECL) detection system and scanned using a chemiluminescence imaging system.
(In general: A western blot detects proteins with antibodies after separation by electrophoresis.)

The test system of series [3] is HUVEC. The experiment in a line: Annexin V-FITC/PI apoptosis assay (flow cytometry). The class given is cell-based, human. The settings on record: 3.75-15 µM. The source says:
The Annexin V-FITC/PI Apoptosis Detection Kit (Vazyme) was used to detect cell apoptosis according to the manufacturer’s instructions. Cells were stained with the kit and then analyzed using flow cytometry (Becton Dickinson [BD]).
Background: In flow cytometry, cells or beads pass a laser one at a time.

Series [4] deals with 4T1 cells (orthotopic breast cancer). The experiment in a line: Anti-tumor efficacy in breast cancer mouse model, alone or with Sunitinib. The class given is in vivo, BALB/c mice.
Description: Female BABL/c mice aged 6–8 weeks were purchased from Beijing SPF Biological Co., LTD. 4T1 cells in good growth condition were collected and injected in situ into the mammary fat pad of female BALB/c mice at a density of 2 × 10⁶ cells per mouse. […] When the tumor size increased to approximately 1200 mm^3, we will conduct further tests. It should be pointed out that, when studying vascular leakage, DyLight™ 649-labeled tomato lectin (Tomoto-lectin) was injected intravenously into the mice via the tail vein two hours prior to tissue collection. The tumor tissues were then excised. Half of each tumor was fixed in 4% paraformaldehyde and subsequently processed for paraffin embedding and immunofluorescence staining. The remaining half was immediately frozen in liquid nitrogen and prepared as frozen sections for further experimental procedures.
Paraffin-embedded mouse tumor tissue sections were deparaffinized, rehydrated, and fixed with 4% paraformaldehyde at room temperature for 20 min. After washing with PBS, the sections were permeabilized with 1% Triton X-100 (Solarbio, China) for 15 min at room temperature, followed by blocking with 5% bovine serum albumin (BSA) in PBS containing 0.1% Triton X-100 for 1 h at room temperature to reduce nonspecific binding. […] After washing, the sections were further incubated overnight at 4 °C with primary antibodies against dsDNA and HSP60. The next day, the sections were incubated with Alexa Fluor 647-conjugated goat anti-rabbit IgG (H + L) secondary antibody (catalog no. A0468, Beyotime Biotechnology, China) for 1 h at room temperature in the dark. Nuclear staining was performed using DAPI (catalog no. C0060, Solarbio, China).
To observe metastasis, tissues were harvested and fixed in Bouin’s solution (saturated picric acid 75 ml + 40% formaldehyde 25 ml + glacial acetic acid 5 ml). After fixation, tissues were stained with picric acid to visualize metastatic nodules, which appeared as distinct lesions against the background tissue.
The target in series [5] is T1, APLNR (Homo sapiens, UniProt P35414).
T1 sequence (P35414 1-380): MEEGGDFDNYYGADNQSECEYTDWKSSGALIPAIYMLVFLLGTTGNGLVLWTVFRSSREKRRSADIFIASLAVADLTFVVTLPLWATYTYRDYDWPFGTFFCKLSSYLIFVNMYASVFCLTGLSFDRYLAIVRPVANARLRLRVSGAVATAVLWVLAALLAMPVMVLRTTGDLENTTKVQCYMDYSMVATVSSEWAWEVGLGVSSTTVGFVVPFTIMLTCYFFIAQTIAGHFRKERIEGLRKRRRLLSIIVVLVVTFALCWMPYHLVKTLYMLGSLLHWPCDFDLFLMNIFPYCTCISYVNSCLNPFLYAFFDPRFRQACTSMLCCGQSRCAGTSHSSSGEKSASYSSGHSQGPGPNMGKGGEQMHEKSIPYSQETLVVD
The experiment in a line: FLIPR Calcium 6 assay, inhibition of Apelin-13-induced calcium flux. In kind it is cell-based. Also on record: expressed in transfected cells; host or cells: HEK293.
Description: HEK293 cells stably expressing APLNR were seeded in 96-well plates (20,000 cells/well) and loaded with Calcium 6 dye (Molecular Devices) for 2 h. Candidate compounds dissolved in DMSO were applied at 2 µM for 15 min, followed by stimulation with the endogenous agonist Apelin-13 (100 nM). Real-time intracellular calcium flux was quantified using FLIPR Tetra® System (470–495 nm excitation/515–575 nm emission).
These candidates were further evaluated for APLNR inhibitory activity at the concentration of 2 µM by using a FLIPR® Calcium 6 Assay Kit, which quantifies ligand-induced intracellular calcium flux.

[6] abbreviates: candesartan 10 mg/kg, Sunitinib 40 mg/kg.

Molecules are shown by their SMILES. Where two headings read alike, the source gives them in different places.

For orientation: inhibition means the change of the read-out against control, counted positive when it falls.

Consider `CCOc1nc2cccc(C(=O)O)c2n1Cc1ccc(-c2ccccc2-c2nnn[nH]2)cc1` [Compound A-2, Candesartan], for which, in series [1] (15 µM), the “Cytotoxicity on HUVEC cells” value was “no significant cytotoxicity”. For the same molecule, the IC50 in series [1] (48 h) turned out to be 32.4 ± 1.69 µM; in series [1] (72 h), 27.1 ± 0.91 µM; in series [5] (FLIPR system, read-out: IC50, inhibition of Apelin-13-mediated calcium mobilization), 1.21 µM. The “Expression of MMP9 and FAK” value in series [2] was “significantly decreased the expression of MMP9 and FAK”. The HUVEC apoptosis entry in series [3] is “no apoptosis was observed”. In series [4] (candesartan 10 mg/kg once daily, Sunitinib 40 mg/kg every two days, intragastric, 14 days, vs vehicle), the Tumor growth entry is on record as “significantly reduce the tumor growth”. Besides, in series [4] (setting [6]), the “Coverage of pericytes on endothelial cells in tumors (CD31/α-SMA)” value is “significantly increased”. Further, the “Lung surface nodules / pulmonary metastasis” value in series [4] (setting [6]) was “inhibited pulmonary metastasis of breast cancer”. The inhibition at 2 µM in series [5] (compound 2 µM, 15 min, then Apelin-13 100 nM, HEK293 cells stably expressing APLNR, read-out: Inhibition rate (2 μM, %)) was found to be 72.3%.
